Test results taken from paper PMC9822287, “The Fate and Intermediary Metabolism of Soyasapogenol in the Rat” (Molecules, 2022).
Read-outs that look alike come from different tables or passages of the source. Each block holds one molecule with its values, some of them ahead of it.

How the values were obtained:
[1] = Pharmacokinetics of oral administration in rats (plasma); format: in vivo; details: rat; for concentration at 1 h / bioavailability / AUC(0-inf) / AUC(0-t) / CL/F / half-life / Cmax / Tmax: plasma; for concentration at 1 h: 1.0 h postadministration; for bioavailability: oral AUC(0-∞)/intravenous AUC(0-∞), read-out: Bioavailability (F); for AUC(0-t): mean n = 6; for CL/F: read-out: CLz/F (clearance) (converted); for half-life: read-out: T1/2z (biological half-life) (converted); for Cmax / Tmax: po; for Ratio of B/A in plasma level (AUC): ratio of soyasapogenol B to soyasapogenol A in plasma
Procedure: The experiments were performed according to Kamo et al. The rats were divided into three groups (n = 8). All rats were fasted for 14–15 h prior to soyasapogenol A or B administration. All rats were orally administered soyasapogenol A or B via direct stomach intubation.
Blood samples were collected from the tail vein at 0 (pre-dose), 0.25, 0.5, 1, 2, 4, 6, 8, and 24 h after administration. The sample volume was 200 μL. The samples were immediately transferred to a centrifuge tube and treated with a sodium citrate anticoagulant. This fraction was then centrifuged at 10,000 rpm for 10 min, and the upper plasma was collected and placed in a refrigerator at −80 °C for later use.
(§1) The soyasapogenol concentrations in the rat plasma solutions were determined according to the method published in [5]. At first, the plasma samples were thawed to 4 °C and transferred (20 to 100 μL) to an Eppendorf tube. After adding the same volume of 0.2 mol/L sodium acetate buffer to each sample, 3 µL aliquots of glucuronidase (Sigma; extracted from Helix pomatia, containing 95,600 units/mL glucuronidase and 1100 units/mL sulfatase) were added to analyze the glucuronyl- and sulfatide-conjugated forms of the soyasapogenols, and the mixture was incubated at 37 °C for 12 h. The samples were mixed thoroughly, and then they were centrifuged at 10,000 rpm for 15 min. The supernatant was blown with nitrogen gas until it was dry, and residual supernatant was dissolved with 1 mL methanol. Subsequently, after filtration, the samples were analyzed according to the method published in [5].
The bioavailability parameters were calculated by comparing AUCoral postadministration with AUCiv post-soyasapogenol I.V. injection:%Bioavailability = [(AUCoral) × Doseiv/(AUCiv) × Doseoral] × 100
The calculation formula is as follows: F = oral administration AUC(0-∞)/intravenous injection AUC(0-∞).

[2] = Pharmacokinetics of intravenous injection in rats (plasma); format: in vivo; details: rat, intravenous (I.V.); for AUC(0-inf) / Cmax / Tmax / AUC(0-t) / half-life: plasma; for AUC(0-t): mean n = 6; for half-life: iv, read-out: T1/2z (half-life) (converted)
Procedure: The rats’ dorsal foot veins were cannulated with a standard syringe needle to administer the soyasapogenol. As presented in Table 5, the dosages of soyasapogenol A were 10 mg/kg and 20 mg/kg, and the dosages of soyasapogenol B were 25 mg/kg and 50 mg/kg. Blood samples were collected from the tail vein just prior to soyasapogenol administration (0 h) and 0.03, 0.08, 0.25, 0.5, 1, 2, 4, 6, 8, and 24 h after soyasapogenol loading; blood soyasapogenol levels were measured immediately. The collected blood sample volume was approximately 200 μL, and the samples were subjected to the same sample pretreatment procedure as described below.
as §1

Caco-2 cell monolayer = tested on: Caco-2 cell monolayer; design: method as in PMID 24698352; details: cited from earlier work

concentration at 1 h ([1]; oral, 10 mg/kg by gavage): 29000 ± 10000 ng/mL | concentration at 1 h ([1]; oral, 20 mg/kg by gavage): 7000 ± 6000 ng/mL | bioavailability ([1]; 10 mg/kg): 73.1% | bioavailability ([1]; 20 mg/kg): 67.3% | AUC(0-inf) ([1]; oral (P.O.), 10 mg/kg): 50.7 µg·h/mL | AUC(0-t) ([1]; oral (P.O.), 10 mg/kg): 35.2 µg·h/mL | CL/F ([1]; oral (P.O.), 10 mg/kg): 6.57 mL/min/kg | half-life ([1]; oral (P.O.), 10 mg/kg): 2.55 h | AUC(0-inf) ([1]; oral (P.O.), 20 mg/kg): 95.5 µg·h/mL | AUC(0-t) ([1]; oral (P.O.), 20 mg/kg): 88.6 µg·h/mL | CL/F ([1]; oral (P.O.), 20 mg/kg): 3.48 mL/min/kg | half-life ([1]; oral (P.O.), 20 mg/kg): 1.97 h | Cmax ([1]; 10 mg/kg, oral (P.O.), 10 mg/kg, read-out: Cmax (peak concentration)): 8590 ng/mL | Tmax ([1]; 10 mg/kg, oral (P.O.), 10 mg/kg, read-out: Tmax (peak time)): 2 h | Cmax ([1]; 10 mg/kg, oral, at 1.0 h postadministration, printed as the 10 mg/kg dose (second mention), read-out: Cmax): 29000 ng/mL | Tmax ([1]; 10 mg/kg, oral, printed as the 10 mg/kg dose (second mention), read-out: time of maximum plasma concentration): 1 h | Cmax ([1]; 20 mg/kg, oral (P.O.), 20 mg/kg, read-out: Cmax (peak concentration)): 29000 ng/mL | Tmax ([1]; 20 mg/kg, oral (P.O.), 20 mg/kg, read-out: Tmax (peak time)): 1 h | AUC(0-inf) ([2]; 10 mg/kg): 69.4 µg·h/mL | Cmax ([2]; 10 mg/kg): 31700 ng/mL | Tmax ([2]; 10 mg/kg): 1.8 min | AUC(0-t) ([2]; 10 mg/kg): 56 µg·h/mL | AUC(0-inf) ([2]; 20 mg/kg): 142 µg·h/mL | Cmax ([2]; 20 mg/kg): 102000 ng/mL | Tmax ([2]; 20 mg/kg): 1.8 min | AUC(0-t) ([2]; 20 mg/kg): 114 µg·h/mL | CLz/F ([2]; 10 mg/kg): 4.8 mL/min/kg | T1/2z (half-life) ([2]; 10 mg/kg): 3.535 h | CLz/F ([2]; 20 mg/kg): 2.35 mL/min/kg | T1/2z (half-life) ([2]; 20 mg/kg): 3.475 h | half-life ([2]; 10 mg/kg, 10 mg/kg): 3.54 h | half-life ([2]; 20 mg/kg, 20 mg/kg): 3.48 h
Structure (SMILES): CC1(C)C[C@H]2C3=CC[C@@H]4[C@@]5(C)CC[C@H](O)[C@](C)(CO)[C@@H]5CC[C@@]4(C)[C@]3(C)CC[C@@]2(C)[C@H](O)[C@@H]1O [Soyasapogenol A]

bioavailability ([1]; 25 mg/kg): 60.9% | bioavailability ([1]; 50 mg/kg): 69% | AUC(0-inf) ([1]; oral (P.O.), 25 mg/kg): 111 µg·h/mL | AUC(0-t) ([1]; oral (P.O.), 25 mg/kg): 96 µg·h/mL | CL/F ([1]; oral (P.O.), 25 mg/kg): 3.02 mL/min/kg | half-life ([1]; oral (P.O.), 25 mg/kg): 2.29 h | AUC(0-inf) ([1]; oral (P.O.), 50 mg/kg): 178 µg·h/mL | AUC(0-t) ([1]; oral (P.O.), 50 mg/kg): 157 µg·h/mL | CL/F ([1]; oral (P.O.), 50 mg/kg): 1.87 mL/min/kg | half-life ([1]; oral (P.O.), 50 mg/kg): 2.27 h | time needed to reach peak concentration ([1]; oral administration, dose not stated): 8 h | Ratio of B/A in plasma level (AUC) ([1]; oral, soyasapogenol B 25 mg/kg column): 2.17 | Ratio of B/A in plasma level (AUC) ([1]; oral, soyasapogenol B 50 mg/kg column): 1.87 | Cmax ([1]; 25 mg/kg, oral (P.O.), 25 mg/kg, read-out: Cmax (peak concentration)): 26400 ng/mL | Tmax ([1]; 25 mg/kg, oral (P.O.), 25 mg/kg, read-out: Tmax (peak time)): 2 h | Cmax ([1]; 50 mg/kg, oral (P.O.), 50 mg/kg, read-out: Cmax (peak concentration)): 40300 ng/mL | Tmax ([1]; 50 mg/kg, oral (P.O.), 50 mg/kg, read-out: Tmax (peak time)): 2 h | Tmax ([1]; oral administration, dose not distinguished, read-out: Tmax): 2 h | AUC(0-inf) ([2]; 25 mg/kg): 181 µg·h/mL | Cmax ([2]; 25 mg/kg): 43300 ng/mL | Tmax ([2]; 25 mg/kg): 1.8 min | AUC(0-t) ([2]; 25 mg/kg): 76.2 µg·h/mL | AUC(0-inf) ([2]; 50 mg/kg): 258 µg·h/mL | Cmax ([2]; 50 mg/kg): 66800 ng/mL | Tmax ([2]; 50 mg/kg): 1.8 min | AUC(0-t) ([2]; 50 mg/kg): 154 µg·h/mL | CLz/F ([2]; 25 mg/kg): 4.1 mL/min/kg | T1/2z (half-life) ([2]; 25 mg/kg): 5.138 h | CLz/F ([2]; 50 mg/kg): 1.28 mL/min/kg | T1/2z (half-life) ([2]; 50 mg/kg): 5.528 h | half-life ([2]; 25 mg/kg, 25 mg/kg): 5.14 h | half-life ([2]; 50 mg/kg, 50 mg/kg): 5.53 h
Structure (SMILES): CC1(C)C[C@@H](O)[C@]2(C)CC[C@]3(C)C(=CC[C@@H]4[C@@]5(C)CC[C@H](O)[C@](C)(CO)[C@@H]5CC[C@]43C)[C@@H]2C1 [Soyasapogenol B]
amount (%) that permeates into the basolateral side from the apical side (Caco-2 cell monolayer): much higher than that of soyasapogenol A
